Measured values published in the supplement of paper PMC11061612.

Tests used:
Test in all cases: combination Emax (second highest fraction inhibited in the dose matrix, 72 h); higher = more inhibition; extreme values may be limits of the assay
Hs-445 (Non-Cancerous) = system: Hs-445 (Non-Cancerous)
Summary of the method: (§1)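 Cell lines in DMEM/F12 or RPMI with 10% FBS were plated in 1536-well plates, held 24 hours at 37°C, 5% CO2, then given two-drug dose matrices for 72 hours (DMSO typically 0.2%). Viability was read by CellTiter-Glo 2.0 luminescence and scaled as inhibition from 0 (vehicle wells) to 1 (blank wells). Combination Emax is the second-highest inhibition in the matrix; Bliss excess is observed combination effect minus expected EA + EB − EA·EB, EA and EB being single-agent effects.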

[1] = system: NCI-H1693 (Lung Adenocarcinoma)
Summary of the method: as §1

A498 (Kidney Carcinoma) = system: A498 (Kidney Carcinoma)
Summary of the method: as §1

[2] = system: NCI-H2141 (Small Cell Lung Carcinoma)
Summary of the method: as §1

LN-405 (Glioblastoma) = system: LN-405 (Glioblastoma)
Summary of the method: as §1

[3] = system: ECC10 (Gastric Carcinoma)
Summary of the method: as §1

[4] = system: COLO-320-HSR (Colorectal Carcinoma)
Summary of the method: as §1

ARH-77 (Non-Cancerous) = system: ARH-77 (Non-Cancerous)
Summary of the method: as §1

IGR-37 (Melanoma) = system: IGR-37 (Melanoma)
Summary of the method: as §1

[5] = system: BICR22 (Oral Cavity Carcinoma)
Summary of the method: as §1

[6] = system: OS-RC-2 (Kidney Carcinoma)
Summary of the method: as §1

CAS-1 (Glioblastoma) = system: CAS-1 (Glioblastoma)
Summary of the method: as §1

[7] = system: SISO (Cervical Carcinoma)
Summary of the method: as §1

[8] = system: PANC-10-05 (Pancreatic Carcinoma)
Summary of the method: as §1

NY (Osteosarcoma) = system: NY (Osteosarcoma)
Summary of the method: as §1

[9] = system: SK-MES-1 (Squamous Cell Lung Carcinoma)
Summary of the method: as §1

[10] = system: SK-MG-1 (Low Grade Glioma)
Summary of the method: as §1

[11] = system: COR-L311 (Small Cell Lung Carcinoma)
Summary of the method: as §1

U-2-OS (Osteosarcoma) = system: U-2-OS (Osteosarcoma)
Summary of the method: as §1

[12] = system: NCI-H1666 (Lung Adenocarcinoma)
Summary of the method: as §1

COc1nnc2ccc(N3CCC(c4ccc(OCCN5CCN(C)C(=O)[C@H]5C)cc4)CC3)nn12 [AZD5153] + CC1(C)CCC(CN2CCN(c3ccc(C(=O)NS(=O)(=O)c4ccc(NCC5CCOCC5)c([N+](=O)[O-])c4)c(Oc4cnc5[nH]ccc5c4)c3)CC2)=C(c2ccc(Cl)cc2)C1 [Venetoclax] (first compound max 1 µM, 7x7, partner max 1 µM)
combination Emax (Hs-445 (Non-Cancerous)): 0.724 | combination Emax [1]: 0.514 | combination Emax (A498 (Kidney Carcinoma)): 0.439 | combination Emax [2]: 0.262 | combination Emax (LN-405 (Glioblastoma)): 0.441 | combination Emax [3]: 0.985 | combination Emax [4]: 0.442 | combination Emax (ARH-77 (Non-Cancerous)): 0.861 | combination Emax (IGR-37 (Melanoma)): 0.65 | combination Emax [5]: 0.235 | combination Emax [6]: 0.273 | combination Emax (CAS-1 (Glioblastoma)): 0.622 | combination Emax [7]: 0.33 | combination Emax [8]: 0.474 | combination Emax (NY (Osteosarcoma)): 0.542 | combination Emax [9]: 0.472 | combination Emax [10]: 0.425 | combination Emax [11]: 0.934 | combination Emax (U-2-OS (Osteosarcoma)): 0.321 | combination Emax [12]: 0.439

COc1nnc2ccc(N3CCC(c4ccc(OCCN5CCN(C)C(=O)[C@H]5C)cc4)CC3)nn12 [AZD5153] + CCN(CCO)CCCOc1ccc2c(Nc3cc(CC(=O)Nc4cccc(F)c4)[nH]n3)ncnc2c1 [AZD2811] (first compound max 1 µM, 7x7, partner max 1 µM)
combination Emax (Hs-445 (Non-Cancerous)): 0.509 | combination Emax [1]: 0.46 | combination Emax (A498 (Kidney Carcinoma)): 0.459 | combination Emax [2]: 0.297 | combination Emax (LN-405 (Glioblastoma)): 0.515 | combination Emax [3]: 0.884 | combination Emax [4]: 0.503 | combination Emax (ARH-77 (Non-Cancerous)): 0.82 | combination Emax (IGR-37 (Melanoma)): 0.597 | combination Emax [5]: 0.463 | combination Emax [6]: 0.304 | combination Emax (CAS-1 (Glioblastoma)): 0.646 | combination Emax [7]: 0.486 | combination Emax [8]: 0.554 | combination Emax (NY (Osteosarcoma)): 0.517 | combination Emax [9]: 0.507 | combination Emax [10]: 0.566 | combination Emax [11]: 0.936 | combination Emax (U-2-OS (Osteosarcoma)): 0.405 | combination Emax [12]: 0.432

COc1nnc2ccc(N3CCC(c4ccc(OCCN5CCN(C)C(=O)[C@H]5C)cc4)CC3)nn12 [AZD5153] + C[C@@H]1COCCN1C2=NC(=NC(=C2)C3(CC3)[S@](=N)(=O)C)C4=C5C=CNC5=NC=C4 [AZD6738] (first compound max 1 µM, 7x7, partner max 10 µM)
combination Emax (Hs-445 (Non-Cancerous)): 0.727 | combination Emax [1]: 0.597 | combination Emax (A498 (Kidney Carcinoma)): 0.65 | combination Emax [2]: 0.578 | combination Emax (LN-405 (Glioblastoma)): 0.53 | combination Emax [3]: 0.916 | combination Emax [4]: 0.719 | combination Emax (ARH-77 (Non-Cancerous)): 0.991 | combination Emax (IGR-37 (Melanoma)): 0.757 | combination Emax [5]: 0.709 | combination Emax [6]: 0.467 | combination Emax (CAS-1 (Glioblastoma)): 0.712 | combination Emax [7]: 0.757 | combination Emax [8]: 0.682 | combination Emax (NY (Osteosarcoma)): 0.627 | combination Emax [9]: 0.769 | combination Emax [10]: 0.595 | combination Emax [11]: 0.95 | combination Emax (U-2-OS (Osteosarcoma)): 0.589 | combination Emax [12]: 0.493

COc1nnc2ccc(N3CCC(c4ccc(OCCN5CCN(C)C(=O)[C@H]5C)cc4)CC3)nn12 [AZD5153] + Cc1c2c(nn1C)CSCc1cc(n(C)n1)CSc1cc(c3ccccc3c1)OCCCc1c(C(=O)O)n(C)c3c-2c(Cl)ccc13 [AZD5991] (first compound max 1 µM, 7x7, partner max 1 µM)
combination Emax (Hs-445 (Non-Cancerous)): 0.618 | combination Emax [1]: 0.56 | combination Emax (A498 (Kidney Carcinoma)): 0.529 | combination Emax [2]: 0.346 | combination Emax (LN-405 (Glioblastoma)): 0.574 | combination Emax [3]: 1 | combination Emax [4]: 0.89 | combination Emax (ARH-77 (Non-Cancerous)): 0.831 | combination Emax (IGR-37 (Melanoma)): 0.949 | combination Emax [5]: 0.901 | combination Emax [6]: 0.372 | combination Emax (CAS-1 (Glioblastoma)): 0.64 | combination Emax [7]: 0.508 | combination Emax [8]: 0.515 | combination Emax (NY (Osteosarcoma)): 0.688 | combination Emax [9]: 0.558 | combination Emax [10]: 0.425 | combination Emax [11]: 0.971 | combination Emax (U-2-OS (Osteosarcoma)): 0.418 | combination Emax [12]: 0.423

COc1nnc2ccc(N3CCC(c4ccc(OCCN5CCN(C)C(=O)[C@H]5C)cc4)CC3)nn12 [AZD5153] + Cn1cnc2c(F)c(Nc3ccc(Br)cc3Cl)c(C(=O)NOCCO)cc21 [Selumetinib] (first compound max 1 µM, 7x7, partner max 10 µM)
combination Emax (Hs-445 (Non-Cancerous)): 0.555 | combination Emax [1]: 0.569 | combination Emax (A498 (Kidney Carcinoma)): 0.867 | combination Emax [2]: 0.276 | combination Emax (LN-405 (Glioblastoma)): 0.332 | combination Emax [3]: 0.955 | combination Emax [4]: 0.333 | combination Emax (ARH-77 (Non-Cancerous)): 0.839 | combination Emax (IGR-37 (Melanoma)): 1 | combination Emax [5]: 0.564 | combination Emax [6]: 0.343 | combination Emax (CAS-1 (Glioblastoma)): 0.599 | combination Emax [7]: 0.452 | combination Emax [8]: 0.633 | combination Emax (NY (Osteosarcoma)): 0.52 | combination Emax [9]: 0.717 | combination Emax [10]: 0.467 | combination Emax [11]: 0.847 | combination Emax (U-2-OS (Osteosarcoma)): 0.628 | combination Emax [12]: 0.558

Cc1c2c(nn1C)CSCc1cc(n(C)n1)CSc1cc(c3ccccc3c1)OCCCc1c(C(=O)O)n(C)c3c-2c(Cl)ccc13 [AZD5991] + C1CN(CCC1(C(=O)N[C@@H](CCO)C2=CC=C(C=C2)Cl)N)C3=NC=NC4=C3C=CN4 [Capivasertib] (first compound max 1 µM, 7x7, partner max 3 µM)
combination Emax (Hs-445 (Non-Cancerous)): 0.988 | combination Emax [1]: 0.164 | combination Emax (A498 (Kidney Carcinoma)): 0.561 | combination Emax [2]: 0.314 | combination Emax (LN-405 (Glioblastoma)): 0.404 | combination Emax [3]: 0.721 | combination Emax [4]: 0.845 | combination Emax (ARH-77 (Non-Cancerous)): 0.915 | combination Emax (IGR-37 (Melanoma)): 0.207 | combination Emax [5]: 0.689 | combination Emax [6]: 0.256 | combination Emax (CAS-1 (Glioblastoma)): 0.573 | combination Emax [7]: 0.173 | combination Emax [8]: 0.357 | combination Emax (NY (Osteosarcoma)): 0.492 | combination Emax [9]: 0.262 | combination Emax [10]: 0.444 | combination Emax [11]: 0.718 | combination Emax (U-2-OS (Osteosarcoma)): 0.219 | combination Emax [12]: 0.274
